{"source": "ChEMBL document CHEMBL5380833", "about": "(J Med Chem, 2023)", "key": {"[1]": {"target": "T1, Protein cereblon/Tyrosine-protein kinase ITK/TSK (Homo sapiens, UniProt Q08881+Q96SW2)", "assay": "PROTAC activity at CRBN/ITK in human Jurkat cells assessed as induction of ITK degradation by Western blot analysis", "type": "cell-based", "settings": "read-out: EC50"}, "[2]": {"target": "T1, Protein cereblon/Tyrosine-protein kinase ITK/TSK", "assay": "PROTAC activity at CRBN/ITK in human Jurkat cells assessed as maximum degradation at 0.01 to 10 uM by Western blot analysis relative to control", "type": "cell-based", "settings": "dose 0.01-10 µM"}, "Interleukin-2": {"target": "Interleukin-2 (Homo sapiens, UniProt P60568)", "sequence (P60568 whole entry)": "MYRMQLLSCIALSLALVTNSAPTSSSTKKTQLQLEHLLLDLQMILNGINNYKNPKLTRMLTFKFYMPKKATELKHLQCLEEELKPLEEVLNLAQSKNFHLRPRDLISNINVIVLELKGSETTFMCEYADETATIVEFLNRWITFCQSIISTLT", "assay": "Inhibition of IL-2 in human Jurkat cells pretreated with compound for 4 hrs followed by anti-CD3/CD28 stimulation by ELISA analysis", "type": "cell-based"}, "[3]": {"assay": "AUC (0 to t) in Balb/c mouse at 5 mg/kg, iv measured upto 24 hrs by LC-MS/MS analysis", "type": "ADME, organism-based", "parameters": "dose 5 mg/kg, time < 24 hrs, route iv", "settings": "in vivo"}, "[4]": {"assay": "AUC (0 to t) in Balb/c mouse at 10 mg/kg, ip measured upto 24 hrs by LC-MS/MS analysis", "type": "ADME, organism-based", "parameters": "time < 24 hrs, dose 10 mg/kg, route ip", "settings": "in vivo"}, "[5]": {"assay": "AUC (0 to infinity) in Balb/c mouse at 5 mg/kg, iv measured upto 24 hrs by LC-MS/MS analysis", "type": "ADME, organism-based", "parameters": "time < 24 hrs, dose 5 mg/kg, route iv", "settings": "in vivo"}, "[6]": {"assay": "AUC (0 to infinity) in Balb/c mouse at 10 mg/kg, ip measured upto 24 hrs by LC-MS/MS analysis", "type": "ADME, organism-based", "parameters": "dose 10 mg/kg, time < 24 hrs, route ip", "settings": "in vivo"}, "[7]": {"assay": "Half life in Balb/c mouse at 5 mg/kg, iv measured upto 24 hrs by LC-MS/MS analysis", "type": "ADME, organism-based", "settings": "in vivo"}, "[8]": {"assay": "Half life in Balb/c mouse at 10 mg/kg, ip measured upto 24 hrs by LC-MS/MS analysis", "type": "ADME, organism-based", "settings": "in vivo"}, "[9]": {"assay": "Volume of distribution at steady state in Balb/c mouse at 5 mg/kg, iv measured upto 24 hrs by LC-MS/MS analysis", "type": "ADME, organism-based", "settings": "in vivo, read-out: Vdss"}, "[10]": {"assay": "Volume of distribution at steady state in Balb/c mouse at 10 mg/kg, ip measured upto 24 hrs by LC-MS/MS analysis", "type": "ADME, organism-based", "settings": "in vivo"}, "[11]": {"assay": "Clearance in Balb/c mouse at 5 mg/kg, iv measured upto 24 hrs by LC-MS/MS analysis", "type": "ADME, organism-based", "settings": "in vivo"}, "[12]": {"assay": "Clearance in Balb/c mouse at 10 mg/kg, ip measured upto 24 hrs by LC-MS/MS analysis", "type": "ADME, organism-based", "settings": "in vivo"}, "[13]": {"assay": "Cmax in Balb/c mouse at 5 mg/kg, iv measured upto 24 hrs by LC-MS/MS analysis", "type": "ADME, organism-based", "parameters": "time < 24 hrs, dose 5 mg/kg, route iv", "settings": "in vivo"}, "[14]": {"assay": "Cmax in Balb/c mouse at 10 mg/kg, ip measured upto 24 hrs by LC-MS/MS analysis", "type": "ADME, organism-based", "parameters": "dose 10 mg/kg, time < 24 hrs, route ip", "settings": "in vivo"}, "[15]": {"assay": "MRT last in Balb/c mouse at 5 mg/kg, iv measured upto 24 hrs by LC-MS/MS analysis", "type": "ADME, organism-based", "settings": "Balb/c, in vivo"}, "[16]": {"assay": "MRT last in Balb/c mouse at 10 mg/kg, ip measured upto 24 hrs by LC-MS/MS analysis", "type": "ADME, organism-based", "settings": "in vivo"}, "[17]": {"assay": "Bioavailability in Balb/c mouse at 10 mg/kg, ip measured upto 24 hrs by LC-MS/MS analysis", "type": "ADME, organism-based", "settings": "in vivo"}, "[18]": {"assay": "Toxicity in Balb/c mouse assessed as drug tolerance at 5 mg/kg, iv measured upto 24 hrs by LC-MS/MS analysis", "type": "organism-based", "settings": "in vivo"}, "[19]": {"assay": "Toxicity in Balb/c mouse assessed as drug tolerance at 10 mg/kg, ip measured upto 24 hrs by LC-MS/MS analysis", "type": "organism-based", "settings": "in vivo"}, "[20]": {"assay": "Toxicity in Balb/c mouse assessed as side effects at 5 mg/kg, iv measured upto 24 hrs by LC-MS/MS analysis", "type": "organism-based", "settings": "in vivo"}, "[21]": {"assay": "Toxicity in Balb/c mouse assessed as side effects at 10 mg/kg, ip measured upto 24 hrs by LC-MS/MS analysis", "type": "organism-based", "settings": "in vivo"}, "[22]": {"target": "T1, Protein cereblon/Tyrosine-protein kinase ITK/TSK", "assay": "PROTAC activity at CRBN/ITK in human Jurkat cells assessed as downregulation of ITK protein by measuring fold change at 100 nM measured after 8 hrs", "type": "cell-based"}, "Jurkat [23]": {"tested_on": "Jurkat", "assay": "Effect on IKZF1 expression in human Jurkat cells at 100 nM measured after 8 hrs by proteomics analysis", "type": "functional, cell-based"}, "Jurkat [24]": {"tested_on": "Jurkat", "assay": "Effect on IKZF3 expression in human Jurkat cells at 100 nM measured after 8 hrs by proteomics analysis", "type": "functional, cell-based"}, "Jurkat [25]": {"tested_on": "Jurkat", "assay": "Effect on CK1alpha expression in human Jurkat cells at 100 nM measured after 8 hrs by proteomics analysis", "type": "functional, cell-based"}, "Jurkat [26]": {"tested_on": "Jurkat", "assay": "Effect on GSPT1 expression in human Jurkat cells at 100 nM measured after 8 hrs by proteomics analysis", "type": "functional, cell-based"}, "[27]": {"target": "T2, Protein cereblon/Tyrosine-protein kinase ITK/TSK (Mus musculus) (UniProt Q8C7D2+Q03526)", "assay": "In vivo PROTAC activity at CRBN/ITK xenografted in Balb/c mouse peripheral blood assessed as prolongation of ITK degradation at 20 mg/kg, ip measured for 2 to 16 hrs by Western blot analysis", "type": "functional, organism-based", "settings": "time 2-16 hrs"}, "[28]": {"target": "T2, Protein cereblon/Tyrosine-protein kinase ITK/TSK (Mus musculus)", "assay": "In vivo PROTAC activity at CRBN/ITK xenografted in Balb/c mouse spleen assessed as prolongation of ITK degradation at 20 mg/kg, ip measured for 2 to 16 hrs by Western blot analysis", "type": "functional, organism-based", "settings": "time 2-16 hrs"}, "[29]": {"target": "T2, Protein cereblon/Tyrosine-protein kinase ITK/TSK (Mus musculus)", "assay": "In vivo PROTAC activity at CRBN/ITK xenografted in Balb/c mouse assessed as reduction in cytokine IL-2 production at 25 mg/kg, ip preincubated for 6 hrs followed by abti-CD3 stimulation and measured after 1.5 hrs by ELISA method relative to control", "type": "functional, organism-based", "parameters": "scale not given: the % may be the effect or the level left", "settings": "time 7.5 hrs"}, "[30]": {"target": "T2, Protein cereblon/Tyrosine-protein kinase ITK/TSK (Mus musculus)", "assay": "(§1) PROTAC activity at CRBN/ITK in Balc/c mouse Primary splenic cell assessed as ITK degradation by immunoblotting analysis", "type": "cell-based", "settings": "dose 0.32-5000 nM"}, "[31]": {"target": "T3, Protein cereblon/Tyrosine-protein kinase ITK/TSK (Mus musculus, UniProt Q8C7D2+Q03526)", "T3 sequence (Q8C7D2 whole entry)": "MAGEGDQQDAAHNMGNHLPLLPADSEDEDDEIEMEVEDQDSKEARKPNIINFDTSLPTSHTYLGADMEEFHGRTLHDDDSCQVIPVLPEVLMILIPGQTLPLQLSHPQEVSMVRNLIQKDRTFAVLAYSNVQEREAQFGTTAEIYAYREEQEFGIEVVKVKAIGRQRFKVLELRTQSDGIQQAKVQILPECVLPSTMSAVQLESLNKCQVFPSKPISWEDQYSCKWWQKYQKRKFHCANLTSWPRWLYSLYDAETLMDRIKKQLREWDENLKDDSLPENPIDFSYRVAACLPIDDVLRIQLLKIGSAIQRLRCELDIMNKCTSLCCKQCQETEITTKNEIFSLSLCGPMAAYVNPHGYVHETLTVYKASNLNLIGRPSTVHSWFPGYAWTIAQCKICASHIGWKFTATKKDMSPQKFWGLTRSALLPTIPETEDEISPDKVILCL", "T3 sequence (Q03526 whole entry)": "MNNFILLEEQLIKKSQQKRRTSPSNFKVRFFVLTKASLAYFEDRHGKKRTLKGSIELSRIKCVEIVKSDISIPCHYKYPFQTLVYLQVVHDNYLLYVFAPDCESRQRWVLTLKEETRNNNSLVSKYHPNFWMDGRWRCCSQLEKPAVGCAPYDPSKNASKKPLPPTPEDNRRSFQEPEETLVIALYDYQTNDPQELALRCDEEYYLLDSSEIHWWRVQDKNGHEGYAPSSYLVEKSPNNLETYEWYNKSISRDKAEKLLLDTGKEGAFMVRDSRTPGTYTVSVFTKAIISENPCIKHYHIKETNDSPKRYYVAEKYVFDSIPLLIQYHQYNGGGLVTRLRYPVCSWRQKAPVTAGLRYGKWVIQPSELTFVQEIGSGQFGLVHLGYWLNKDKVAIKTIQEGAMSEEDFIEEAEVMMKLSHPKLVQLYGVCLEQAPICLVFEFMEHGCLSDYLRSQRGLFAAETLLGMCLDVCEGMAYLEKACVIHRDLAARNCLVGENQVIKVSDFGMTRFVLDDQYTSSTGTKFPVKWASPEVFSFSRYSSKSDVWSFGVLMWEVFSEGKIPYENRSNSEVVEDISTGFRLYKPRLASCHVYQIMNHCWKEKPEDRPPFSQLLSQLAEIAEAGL", "assay": "as §1", "type": "cell-based"}, "[32]": {"target": "T2, Protein cereblon/Tyrosine-protein kinase ITK/TSK (Mus musculus)", "assay": "PROTAC activity at CRBN/ITK in Balc/c mouse Primary splenic cell assessed as maximum degradation at 0.32 to 5000 nM by immunoblotting analysis relative to control", "type": "cell-based", "settings": "dose 0.32-5000 nM"}}, "note": "Activity calls are given as the source filed them. The rule behind the calls is not given here.", "data": [{"smiles": "CC1(C)CCc2c(C(=O)Nc3cnn([C@@H](CCN4CCN(CCC5CCN(c6ccc7c(c6)C(=O)N(C6CCC(=O)NC6=O)C7=O)CC5)CC4)c4ccccc4)c3)n[nH]c2C1.O=C(O)C(F)(F)F", "note": "(stereo partly drawn)", "values": [{"measurement": "EC50", "setting": "[1]", "value": 3.6, "unit": "nM"}, {"measurement": "Emax", "setting": "[2]", "value": 95, "unit": "%"}, {"measurement": "EC50", "setting": "Interleukin-2", "value": 35.2, "unit": "nM"}, {"measurement": "AUC(0-t) at 24 h", "setting": "[3]", "value": 15100, "unit": "ng·h/mL"}, {"measurement": "AUC(0-t) at 24 h", "setting": "[4]", "value": 25900, "unit": "ng·h/mL"}, {"measurement": "AUC(0-inf)", "setting": "[5]", "value": 15400, "unit": "ng·h/mL"}, {"measurement": "AUC(0-inf)", "setting": "[6]", "value": 27300, "unit": "ng·h/mL"}, {"measurement": "half-life", "setting": "[7]", "value": 4.39, "unit": "h"}, {"measurement": "half-life", "setting": "[8]", "value": 5.75, "unit": "h"}, {"measurement": "Vd", "setting": "[9]", "value": 2.06, "unit": "L/kg"}, {"measurement": "Vdss", "setting": "[10]", "value": 3.06, "unit": "L/kg"}, {"measurement": "clearance", "setting": "[11]", "value": 5.4, "unit": "mL/min/kg"}, {"measurement": "CL/F", "setting": "[12]", "value": 6.1, "unit": "mL/min/kg"}, {"measurement": "Cmax", "setting": "[13]", "value": 4910, "unit": "ng/mL"}, {"measurement": "Cmax", "setting": "[14]", "value": 3420, "unit": "ng/mL"}, {"measurement": "MRT last at 24 h", "setting": "[15]", "value": 4.42, "unit": "h"}, {"measurement": "MRT last at 24 h", "setting": "[16]", "value": 5.84, "unit": "h"}, {"measurement": "bioavailability", "setting": "[17]", "value": 88.4, "unit": "%"}, {"measurement": "Activity", "setting": "[18]", "value": "Non-Toxic"}, {"measurement": "Activity", "setting": "[19]", "value": "Non-Toxic"}, {"measurement": "Activity", "setting": "[20]", "value": "Non-Toxic"}, {"measurement": "Activity", "setting": "[21]", "value": "Non-Toxic"}, {"measurement": "fold change (FC)", "setting": "[22]", "value": 0.37}, {"measurement": "Activity", "setting": "Jurkat [23]", "value": "inactive"}, {"measurement": "Activity", "setting": "Jurkat [24]", "value": "inactive"}, {"measurement": "Activity", "setting": "Jurkat [25]", "value": "inactive"}, {"measurement": "Activity", "setting": "Jurkat [26]", "value": "inactive"}, {"measurement": "Activity", "setting": "[27]", "value": "Active"}, {"measurement": "Activity", "setting": "[28]", "value": "Active"}, {"measurement": "Activity", "setting": "[29]", "value": 70, "unit": "%"}, {"measurement": "Activity", "setting": "[30]", "value": "Dose-Dependent Effect"}, {"measurement": "DC50", "setting": "[31]", "value": 2.1, "unit": "nM"}, {"measurement": "Emax", "setting": "[32]", "value": "> 99", "unit": "%"}]}]}
